Laboratory results from article PMC10944477 (Communications Biology, 2024).
In brackets after ≈: the same amount, converted by molar mass.

How the values were obtained:
[1] = target: T1, Tet(56-2) (Legionella clemsonensis, UniProt A0A222NYA8); assay: biochemical
T1 construct: gene clem_00015

[2] = target: T2, Tet(56-3) (Legionella massiliensis, UniProt A0A078L5T0); assay: biochemical
T2 construct: gene BN59_03621

[3] = tested on: E. coli + pZE24 TetX7_WT; assay: microbe, parasite or virus in culture; conditions: Escherichia coli, 20 h
Description: (§1) For high expression from the Plac/ara-1 promoter, 1 mM IPTG fully relieves repression by LacI[93]. Inoculated panels were incubated at 37 °C for 20 h with shaking, then scored by eye and using a plate reader.

[4] = tested on: E. coli + pZE24 Tet50_WT; assay: microbe, parasite or virus in culture; conditions: Escherichia coli, 20 h
Description: as §1

[5] = tested on: Tet(X7); assay type: biochemical, uncultured bacterium; conditions: […] NADPH, […] MgCl2, 100 mM TAPS pH 8.5, 0.4 µM enzyme; read-out: KM (apparent)
[6] = tested on: Tet(56-4); conditions: read-out: KM (apparent); […] NADPH, […] MgCl2, 100 mM TAPS pH 8.5, 0.4 µM enzyme
[7] = tested on: Tet(X13.2); conditions: read-out: KM (apparent); […] NADPH, […] MgCl2, 100 mM TAPS pH 8.5, 0.4 µM enzyme
[8] = tested on: Tet(58); conditions: read-out: KM (apparent); […] NADPH, […] MgCl2, 100 mM TAPS pH 8.5, 0.4 µM enzyme
[9] = tested on: Tet(56-6); conditions: read-out: KM (apparent); […] NADPH, […] MgCl2, 100 mM TAPS pH 8.5, 0.4 µM enzyme
[10] = tested on: Tet(56-5); conditions: read-out: KM (apparent)
[11] = tested on: Tet(56-7); conditions: read-out: KM (apparent)
[12] = tested on: C[C@H]1c2cccc(O)c2C(=O)C2=C(O)[C@]3(O)C(=O)C(C(N)=O)=C(O)[C@@H](N(C)C)[C@@H]3[C@@H](O)[C@@H]21; assay: purified protein; conditions: pH 8.5

T1 sequence (A0A222NYA8 1-387 limits assumed): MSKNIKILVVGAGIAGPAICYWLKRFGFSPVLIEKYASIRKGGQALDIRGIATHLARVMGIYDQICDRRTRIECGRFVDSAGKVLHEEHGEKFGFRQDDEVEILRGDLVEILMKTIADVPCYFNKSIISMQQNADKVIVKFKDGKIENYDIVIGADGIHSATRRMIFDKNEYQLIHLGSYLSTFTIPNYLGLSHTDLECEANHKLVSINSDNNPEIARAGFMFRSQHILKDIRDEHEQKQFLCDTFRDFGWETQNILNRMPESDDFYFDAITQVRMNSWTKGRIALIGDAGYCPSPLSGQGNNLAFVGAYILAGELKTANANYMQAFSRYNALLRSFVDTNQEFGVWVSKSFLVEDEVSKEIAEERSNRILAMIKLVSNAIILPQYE
T2 sequence (A0A078L5T0 1-387 limits assumed): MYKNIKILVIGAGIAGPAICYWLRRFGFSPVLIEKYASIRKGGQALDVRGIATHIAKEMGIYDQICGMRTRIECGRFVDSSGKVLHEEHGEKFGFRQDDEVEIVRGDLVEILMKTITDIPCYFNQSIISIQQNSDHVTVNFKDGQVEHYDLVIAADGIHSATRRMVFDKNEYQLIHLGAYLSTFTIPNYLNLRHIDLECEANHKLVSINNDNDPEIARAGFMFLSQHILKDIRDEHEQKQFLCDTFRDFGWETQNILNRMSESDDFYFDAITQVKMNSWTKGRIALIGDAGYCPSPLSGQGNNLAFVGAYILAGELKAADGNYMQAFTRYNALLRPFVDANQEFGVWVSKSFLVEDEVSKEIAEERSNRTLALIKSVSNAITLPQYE

What does the source list for `Cc1c2c(c(O)c3c(O)cccc13)C(=O)[C@]1(O)C(=O)C(C(N)=O)=C(O)[C@@H](N(C)C)[C@@H]1C2` [ATC, anhydrotetracycline]?
IC50 [1]: 6.4 ± 0.9 µM; IC50 [2]: 30 ± 6 µM

How did the MIC [3] turn out when `C[C@H]1c2cccc(O)c2C(=O)C2=C(O)[C@]3(O)C(=O)C(C(N)=O)=C(O)[C@@H](N(C)C)[C@@H]3[C@@H](O)[C@@H]21` [DOX, doxycycline] was run?
The MIC was 16 µg/mL (≈ 36 µM).

What about the MIC [4] of the same compound?
Its MIC is 2 µg/mL (≈ 4.5 µM).

And the Km [5]?
The Km was 5.62 ± 0.629 µM.

Which MIC [3] does the source give for `CN(C)[C@@H]1C(=O)C(C(N)=O)=C(O)[C@@]2(O)C(=O)C3=C(O)c4c(O)cccc4[C@@](C)(O)[C@H]3C[C@@H]12` [TET, tetracycline] here?
Its MIC is 32 µg/mL (≈ 72 µM).

What about the MIC [4] of the same compound?
The MIC was 32 µg/mL (≈ 72 µM).

What about the Km [6] of the same compound?
Its Km is 1.18 ± 0.562 µM.

And the Km [7]?
Its Km is 23.4 ± 9.62 µM.

What about the Km [8] of the same compound?
The Km was 0.123 ± 0.067 µM.

What about the Km [9] of the same compound?
The Km was 0.441 ± 0.218 µM.

What about the Km [5] of the same compound?
Its Km is 2.97 ± 0.68 µM.

What about the Km [10] of the same compound?
Its Km is 0.508 ± 0.181 µM.

And the Km [11]?
Its Km is 2.6 ± 0.301 µM.

Which results are given for `CN(C)c1cc(NC(=O)CNC(C)(C)C)c(O)c2c1C[C@H]1C[C@H]3[C@H](N(C)C)C(O)=C(C(N)=O)C(=O)[C@@]3(O)C(O)=C1C2=O` [tigecycline]?
MIC [3]: 2 µg/mL (≈ 3.41 µM); MIC [4]: 0.5 µg/mL (≈ 0.854 µM)

Which Km [12] does the source give for Tet(56-2) (Legionella clemsonensis) here?
Its Km is 150 ± 42 µM.

Tet(56-3) (Legionella massiliensis) was tested. Which Km [12] did it give?
Its Km is 14.9 ± 1.4 µM.
